Literature values as cited in patent publication US5717095A, “Nucleotide analogs” (Gilead Sciences, Inc., priority 1996, dated 1998).

Tested on: intraperitoneal P388 leukemia
Details: murine; cited from earlier work

Nc1ncnc2c1ncn2CC(CO)OCP(=O)(O)O (stereo not shown) [HPMPA]
antitumor activity: active
